What was measured:
[1] = tested on: HCV replicon (subgenomic HCV RNA, NS5a); test: HCV replicon RNA (Northern blot) and NS5a protein (Western blot) levels in HuH7 replicon cell lines; format: cell-based, Hepatitis C virus; conditions: for effect like all-trans-retinoic acid (GI-GPx upregulation, reduction of HCV RNA and NS5a): alone or in combination with each other or with selenium or a selenium salt; for reduction of HCV load: replicon cells
Protocol: The HuH7 pcDNA3 control cells and the replicon cell lines 5-15, 11-7 and 9-13 were plated as described in legend to FIG. 1 and after three days (Day 0) treated for two (Day 2) and four days (Day 4) with 1000U/ml interferon α (IFN-α). Then, cultures were harvested and RNA was prepared. 10 μg of total RNA were used for Northern blot analysis. For detection of GI-GPx (A) Probe 1 was used (see FIG. 1). The membranes were stripped and successively hybridized with probes for PKR (B) and neomycin phosphotransferase (Neo)(C). […]
(§1) Western blot analysis was performed using an NS5a antibody (FIG. 5). Expression of the transduced GI-GPx cDNA was monitored with a GI-GPx-specific antiserum (FIG. 6).
(§2) Replicon cells were incubated with alpha interferon (IFN-α) for two and four days. Northern blot analyses were performed with 10 μg total RNA. […] Interferon had no effect on the expression of GI-GPx in mock transfected HuH7 cells (cf FIG. 4).
(§3) As a model system for HCV replication there were utilized three replicon cell lines provided by Prof. R. Bartenschlager (University of Heidelberg, Germany). Cultures were treated for various periods of time with all trans-retinoic acid (RA) for comparative purposes and the other agents selenium, selenium salts, Vitamin D3 and retinoids, like 9-cis-retinoic acid, C1-C10 alkyl esters of 9-cis-retinoic acid, C1-C10 alkyl amides of 9-cis-retinoic acid, N-(4-hydroxyphenyl) retinamide (4-HPR), 6-[3-(1-adamantyl)-4-hydroxyphenyl]-2-naphthalene carboxylic acid (CD437; AHPN) (obtained from Sigma), paraquat, 4-[E-2-(5,6,7,8-tetrahydro-5,5,8,8-tetramethyl-2-naphthalenyl)-1-propenyl]benzoic acid, 4-hydroxyphenylretinamide, and 4-[(5,6,7,8-tetrahydro-5,5,8,8-tetramethyl-2-naphtalenyl)carboxamido]benzoic acid.
(§4) Levels of GI-GPx protein expression were measured by Western Blotting using antibodies provided by Prof. Brigelius-Flohe (University of Potsdam, Germany), and RNA levels were measured by Northern blotting using GI-GPx-specific oligonucleotides as probes. Levels of HCV RNA were investigated by Northern Blotting using a DNA oligonucleotide complementary to the neomycin phosphotransferase gene as probe. Concentration of the viral protein NS5a was determined by Western Blotting with an NS5a-specific antibody (Biogenesis, UK).

[2] = tested on: PKR (double strand RNA-dependent protein kinase); test: Transcription of PKR in replicon cells; format: cell-based, human
Protocol: (§5) The HuH7 pcDNA3 control cells and the replicon cell lines 5-15, 11-7 and 9-13 were plated as described in legend to FIG. 1 and after three days (Day 0) treated for two (Day 2) and four days (Day 4) with 1000U/ml interferon α (IFN-α). Then, cultures were harvested and RNA was prepared. 10 μg of total RNA were used for Northern blot analysis. For detection of GI-GPx (A) Probe 1 was used (see FIG. 1). The membranes were stripped and successively hybridized with probes for PKR (B) and neomycin phosphotransferase (Neo)(C).
This fact implies that downregulation of HCV was promoted firstly by activation of the GI-GPx gene on transcriptional level by retinoic acid and secondly by the synthesis of selenoprotein(s) for which sodium selenite was needed. Indeed it could be shown that all-trans-retinoic acid-induced downregulation of HCV is independent of the innate immune response induced by interferon.

replicon cells = test: Cytotoxic effects in replicon cells; format: cell-based, human
Text: As a model system for HCV replication there were utilized three replicon cell lines provided by Prof. R. Bartenschlager (University of Heidelberg, Germany).

GI-GPx [3] = test: GI-GPx RNA and protein expression in HuH7 replicon cell lines; format: cell-based, human
Protocol: as §5, §1
The x-ray films were densitometrically scanned and the NS5a values compared with untransfected control cells (set as 100%) (FIG. 5) and the GI-GPx values compared with the maximum expression of the transduced GI-GPx cDNA obtained seven days post infection (set as 100%) (FIG. 6).
as §2, §3, §4

HuH 11-7 replicon cells = test: Paraquat sensitivity, Alamar Blue viability assay; format: cell-based, human; conditions: HuH 11-7, 24 hours, three independent experiments
Protocol: (§6) Cells were plated in 96-well microtiter plates (5×10^3 cells/0.35 cm^2) and after three days treated for 24 hours with the concentration of paraquat depicted. Cell viability was measured utilizing an Alamar-Blue assay and is reflected by relative fluorescence units (RFU) at 405 nm.
(§7) Replicon cell lines and control cells were incubated for 24 hours with various concentrations of paraquat (methylviologen), and viability of the cultures was measured using the Alamar Blue assay.
(§8) For quantification of the degree of cell death in cell culture we employed the viability assay based on the reduction of tetrazolium salt to formazan by mitochondrial dehydrogenase activity. The assay was performed in 96-well microtiter plates (Greiner, Frickenhausen, Germany) as described previously (T. Herget et al., 1998, J. Neurochem., 70: 47-58) but Alamar Blue (Roche Molecular Biochemicals, Germany) was used instead of MTT. The light absorbance at 405 nm of the medium including all factors but without cells was determined and subtracted from the absorption readings with cells. Eight wells per sample point were analyzed and each experiment was repeated independently at least three times.

HuH 5-15 replicon cells = test: Paraquat sensitivity, Alamar Blue viability assay; format: cell-based, human; conditions: HuH 5-15, 24 hours, three independent experiments
Protocol: as §6, §7, §8

HuH pcDNA3 control cells = test: Paraquat sensitivity, Alamar Blue viability assay; format: cell-based, human; conditions: 24 hours, three independent experiments
Protocol: as §6, §7, §8

HuH 9-13 replicon cells = test: Paraquat sensitivity, Alamar Blue viability assay; format: cell-based, human; conditions: HuH 9-13, 24 hours, three independent experiments
Protocol: as §6, §7, §8

GI-GPx [4] = test: GI-GPx expression in mock transfected HuH7 cells; format: cell-based, human
Protocol: as §5, §2

Compound	effect like all-trans-retinoic acid (GI-GPx upregulation, reduction of HCV RNA and NS5a) [1]	reduction of HCV load [1]	also measured
CC1=C(/C=C/C(C)=C/C=C/C(C)=C/C(=O)Nc2ccc(O)cc2)C(C)(C)CCC1 [4-HPR, N-(4-hydroxyphenyl) retinamide]	showed a similar effect	capable of reducing HCV load	
CC1(C)CCC(C)(C)c2cc(C(=O)Nc3ccc(C(=O)O)cc3)ccc21 [4-[(5,6,7,8-tetrahydro-5,5,8,8-tetramethyl-2-naphthalenyl)carboxamido]benzoic acid]	showed a similar effect	capable of reducing HCV load	
C/C(=C\c1ccc(C(=O)O)cc1)c1ccc2c(c1)C(C)(C)CCC2(C)C [4-[E-2-(5,6,7,8-tetrahydro-5,5,8,8-tetramethyl-2-naphthalenyl)-1-propenyl]benzoic acid]	showed a similar effect	capable of reducing HCV load	
CC1=C(/C=C/C(C)=C\C=C\C(C)=C\C(=O)O)C(C)(C)CCC1 [9-cis retinoic acid]	showed a similar effect	capable of reducing HCV load	
CC1=C(/C=C/C(C)=C/C=C/C(C)=C\C(=O)O)C(C)(C)CCC1 [13-cis retinoic acid]	showed a similar effect	capable of reducing HCV load	
O=C(O)c1ccc2cc(-c3ccc(O)c(C45CC6CC(CC(C6)C4)C5)c3)ccc2c1 [CD437, 6-[3-(1-adamantyl)-4-hydroxyphenyl]-2-naphthalene carboxylic acid]	showed a similar effect	capable of reducing HCV load	
CC1=C(/C=C/C(C)=C/C=C/C(C)=C/C(=O)O)C(C)(C)CCC1 [all-trans-retinoic acid]			induction of transcription of PKR [2]: did not induce; toxic effects (replicon cells; six days, in the presence of selenium or a selenium salt): absence of toxic effects; up-regulation of GI-GPx, RNA and protein level (GI-GPx [3]; 1 μM, seven days of incubation): three- to ten-fold; effect on GI-GPx expression (GI-GPx [3]; 1 μM, three days): hardly any effect; GI-GPx RNA and protein (GI-GPx [3]; six days): upregulation; downregulation of subgenomic HCV RNA and viral protein NS5a ([1]; 1 μM, seven days, depending on the cell line): two- to five-fold; effect on HCV expression ([1]; 1 μM, three days): hardly any effect; reduction of HCV RNA and HCV NS5a protein ([1]; six days, in the presence of selenium or a selenium salt like sodium selenite): two-to five-fold
CCOC(=O)/C=C(C)/C=C/C=C(C)/C=C/c1c(C)cc(OC)c(C)c1C [etretinate]	showed a similar effect	capable of reducing HCV load	
C[n+]1ccc(-c2cc[n+](C)cc2)cc1 [paraquat]	showed a similar effect	capable of reducing HCV load	LD50 for paraquat (HuH 11-7 replicon cells): 310 ± 65 µM; LD50 for paraquat (HuH 5-15 replicon cells): 270 ± 75 µM; LD50 for paraquat (HuH pcDNA3 control cells): 1250 ± 120 µM; LD50 for paraquat (HuH 9-13 replicon cells): 260 ± 50 µM
CC1=C(/C=C/C(C)=C/C=C/C(C)=C/C=O)C(C)(C)CCC1 [retinoic acid adlehyde]	showed a similar effect	capable of reducing HCV load	
CC1=C(/C=C/C(C)=C/C=C/C(C)=C/CO)C(C)(C)CCC1 [retinol]	showed a similar effect	capable of reducing HCV load	
O=[Se](O)O [sodium selenite]			severe cytotoxic effects (replicon cells; alone or both in combination): neither observed
IFN-α			GI-GPx expression (GI-GPx [4]): no effect; GI-GPx expression (GI-GPx [3]; replicon cells, within four days of interferon treatment, 1000 U/ml): up-regulated; HCV-replicon RNA and HCV protein NS5a level ([1]; 1000 U/ml, two and four days): time- and dose-dependent down-regulation

Source: patent US7341717B2, “Therapeutic targets for treatment of HCV infections, methods of treating HCV infections and compounds useful therefor” (priority 2001, dated 2008)
